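All cell lines were grown in 96-well plates and treated with compound for 48 hours. At the GI50, growth is halved.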 Activity calls are given as the source filed them. Rule as the data show it: active = GI50 up to about 1.1 µM and inactive = higher.
Columns and labels:
Test in all cases: NCI-60 cell line screen, 48 h
A498 = tested on: A498
SN12C = tested on: SN12C
Hs-578T = tested on: Hs-578T
MOLT-4 = tested on: MOLT-4
UACC-62 = tested on: UACC-62
M14 = tested on: M14
OVCAR-8 = tested on: OVCAR-8
PC-3 = tested on: PC-3
NCI-H23 = tested on: NCI-H23
SF-268 = tested on: SF-268
CCRF-CEM = tested on: CCRF-CEM
CAKI-1 = tested on: CAKI-1
MCF7 = tested on: MCF7
OVCAR-4 = tested on: OVCAR-4
786-0 = tested on: 786-0
UO-31 = tested on: UO-31
HOP-62 = tested on: HOP-62
T47D = tested on: T47D
MDA-MB-435 = tested on: MDA-MB-435
SR = tested on: SR
K562 = tested on: K562
SK-OV-3 = tested on: SK-OV-3
SK-MEL-2 = tested on: SK-MEL-2
HCT-15 = tested on: HCT-15
SF-295 = tested on: SF-295
IGROV-1 = tested on: IGROV-1
SNB-75 = tested on: SNB-75
OVCAR-5 = tested on: OVCAR-5
HOP-92 = tested on: HOP-92
LOX IMVI = tested on: LOX IMVI
Malme-3M = tested on: Malme-3M
EKVX = tested on: EKVX
HCC 2998 = tested on: HCC 2998
TK-10 = tested on: TK-10
OVCAR-3 = tested on: OVCAR-3
SK-MEL-28 = tested on: SK-MEL-28
A549 = tested on: A549
UACC-257 = tested on: UACC-257
MDA-MB-231 = tested on: MDA-MB-231
NCI-H460 = tested on: NCI-H460
RXF 393 = tested on: RXF 393
KM12 = tested on: KM12
SK-MEL-5 = tested on: SK-MEL-5
HCT-116 = tested on: HCT-116
HT-29 = tested on: HT-29
NCI-H226 = tested on: NCI-H226
NCI/ADR-RES = tested on: NCI/ADR-RES
ACHN = tested on: ACHN
SW-620 = tested on: SW-620
MDA-N = tested on: MDA-N
HL-60 = tested on: HL-60
DU-145 = tested on: DU-145
COLO 205 = tested on: COLO 205
U-251 = tested on: U-251
BT-549 = tested on: BT-549
RPMI-8226 = tested on: RPMI-8226
SNB-19 = tested on: SNB-19
SF-539 = tested on: SF-539
NCI-H522 = tested on: NCI-H522

Compound: O=C1NC(=O)/C(=C/c2ccc(S(=O)(=O)N/N=C/c3ccc(Cl)cc3)cc2)N1
- GI50 (A498): 23.6 µM (inactive)
- GI50 (SN12C): > 100 µM (inactive)
- GI50 (Hs-578T): > 100 µM (inactive)
- GI50 (MOLT-4): > 100 µM (inactive)
- GI50 (UACC-62): > 100 µM (inactive)
- GI50 (M14): > 100 µM (inactive)
- GI50 (OVCAR-8): > 100 µM (inactive)
- GI50 (PC-3): > 100 µM (inactive)
- GI50 (NCI-H23): > 100 µM (inactive)
- GI50 (SF-268): > 100 µM (inactive)
- GI50 (CCRF-CEM): > 100 µM (inactive)
- GI50 (CAKI-1): > 100 µM (inactive)
- GI50 (MCF7): > 100 µM (inactive)
- GI50 (OVCAR-4): > 100 µM (inactive)
- GI50 (786-0): > 100 µM (inactive)
- GI50 (UO-31): > 100 µM (inactive)
- GI50 (HOP-62): > 100 µM (inactive)
- GI50 (T47D): > 100 µM (inactive)
- GI50 (MDA-MB-435): > 100 µM (inactive)
- GI50 (SR): 61.2 µM (inactive)
- GI50 (K562): > 100 µM (inactive)
- GI50 (SK-OV-3): > 100 µM (inactive)
- GI50 (SK-MEL-2): > 100 µM (inactive)
- GI50 (HCT-15): > 100 µM
- GI50 (SF-295): > 100 µM (inactive)
- GI50 (IGROV-1): 92.9 µM (inactive)
- GI50 (SNB-75): > 100 µM (inactive)
- GI50 (OVCAR-5): > 100 µM (inactive)
- GI50 (HOP-92): 78.5 µM (inactive)
- GI50 (LOX IMVI): > 100 µM (inactive)
- GI50 (Malme-3M): > 100 µM (inactive)
- GI50 (EKVX): > 100 µM (inactive)
- GI50 (HCC 2998): > 100 µM (inactive)
- GI50 (TK-10): > 100 µM (inactive)
- GI50 (OVCAR-3): 65.9 µM (inactive)
- GI50 (SK-MEL-28): > 100 µM (inactive)
- GI50 (A549): > 100 µM (inactive)
- GI50 (UACC-257): > 100 µM (inactive)
- GI50 (MDA-MB-231): > 100 µM (inactive)
- GI50 (NCI-H460): > 100 µM (inactive)
- GI50 (RXF 393): > 100 µM (inactive)
- GI50 (KM12): > 100 µM (inactive)
- GI50 (SK-MEL-5): > 100 µM (inactive)
- GI50 (HCT-116): > 100 µM (inactive)
- GI50 (HT-29): > 100 µM (inactive)
- GI50 (NCI-H226): > 100 µM (inactive)
- GI50 (NCI/ADR-RES): > 100 µM (inactive)
- GI50 (ACHN): > 100 µM (inactive)
- GI50 (SW-620): > 100 µM (inactive)
- GI50 (MDA-N): > 100 µM (inactive)
- GI50 (HL-60): 72.9 µM (inactive)
- GI50 (DU-145): > 100 µM (inactive)
- GI50 (COLO 205): > 100 µM (inactive)
- GI50 (U-251): > 100 µM (inactive)
- GI50 (BT-549): > 100 µM (inactive)
- GI50 (RPMI-8226): > 100 µM (inactive)
- GI50 (SNB-19): > 100 µM (inactive)

Compound: Cc1ccc2nc3[nH]nc(N)c3nc2c1
- GI50 (A498): 85.3 µM (inactive)
- GI50 (SN12C): > 100 µM (inactive)
- GI50 (Hs-578T): 89.3 µM (inactive)
- GI50 (MOLT-4): 68.5 µM (inactive)
- GI50 (UACC-62): 44.2 µM (inactive)
- GI50 (M14): > 100 µM (inactive)
- GI50 (OVCAR-8): > 100 µM (inactive)
- GI50 (PC-3): 93.3 µM (inactive)
- GI50 (NCI-H23): > 100 µM (inactive)
- GI50 (SF-268): > 100 µM (inactive)
- GI50 (CCRF-CEM): > 100 µM (inactive)
- GI50 (CAKI-1): 42.6 µM (inactive)
- GI50 (MCF7): > 100 µM (inactive)
- GI50 (OVCAR-4): > 100 µM (inactive)
- GI50 (786-0): > 100 µM (inactive)
- GI50 (UO-31): 52 µM (inactive)
- GI50 (HOP-62): > 100 µM (inactive)
- GI50 (T47D): 65.3 µM (inactive)
- GI50 (MDA-MB-435): > 100 µM (inactive)
- GI50 (SR): > 100 µM (inactive)
- GI50 (SK-OV-3): > 100 µM (inactive)
- GI50 (SK-MEL-2): > 100 µM (inactive)
- GI50 (HCT-15): 91 µM
- GI50 (SF-295): > 100 µM (inactive)
- GI50 (IGROV-1): 37 µM (inactive)
- GI50 (SNB-75): 64 µM (inactive)
- GI50 (OVCAR-5): > 100 µM (inactive)
- GI50 (HOP-92): 87.1 µM (inactive)
- GI50 (LOX IMVI): > 100 µM (inactive)
- GI50 (Malme-3M): > 100 µM (inactive)
- GI50 (EKVX): 20.9 µM (inactive)
- GI50 (HCC 2998): > 100 µM (inactive)
- GI50 (TK-10): 28 µM (inactive)
- GI50 (OVCAR-3): > 100 µM (inactive)
- GI50 (SK-MEL-28): > 100 µM (inactive)
- GI50 (A549): > 100 µM (inactive)
- GI50 (UACC-257): > 100 µM (inactive)
- GI50 (MDA-MB-231): > 100 µM (inactive)
- GI50 (NCI-H460): > 100 µM (inactive)
- GI50 (RXF 393): 60 µM (inactive)
- GI50 (KM12): 54.6 µM (inactive)
- GI50 (SK-MEL-5): > 100 µM (inactive)
- GI50 (HCT-116): > 100 µM (inactive)
- GI50 (HT-29): > 100 µM (inactive)
- GI50 (NCI-H226): 45.3 µM (inactive)
- GI50 (SF-539): > 100 µM (inactive)
- GI50 (NCI/ADR-RES): > 100 µM (inactive)
- GI50 (ACHN): 99.3 µM (inactive)
- GI50 (SW-620): > 100 µM (inactive)
- GI50 (MDA-N): 51.1 µM (inactive)
- GI50 (DU-145): > 100 µM (inactive)
- GI50 (NCI-H522): > 100 µM (inactive)
- GI50 (COLO 205): > 100 µM (inactive)
- GI50 (U-251): > 100 µM (inactive)
- GI50 (BT-549): 67 µM (inactive)
- GI50 (RPMI-8226): 72.6 µM (inactive)
- GI50 (SNB-19): > 100 µM (inactive)

Compound: O=C(O)[C@@H]1C[C@@H](O)CN1
- GI50 (A498): > 100 µM (inactive)
- GI50 (SN12C): > 100 µM (inactive)
- GI50 (Hs-578T): > 100 µM (inactive)
- GI50 (MOLT-4): > 100 µM (inactive)
- GI50 (UACC-62): > 100 µM (inactive)
- GI50 (M14): > 100 µM (inactive)
- GI50 (OVCAR-8): > 100 µM (inactive)
- GI50 (PC-3): > 100 µM (inactive)
- GI50 (NCI-H23): > 100 µM (inactive)
- GI50 (SF-268): > 100 µM (inactive)
- GI50 (CCRF-CEM): > 100 µM (inactive)
- GI50 (CAKI-1): > 100 µM (inactive)
- GI50 (MCF7): > 100 µM (inactive)
- GI50 (OVCAR-4): > 100 µM (inactive)
- GI50 (786-0): > 100 µM (inactive)
- GI50 (UO-31): > 100 µM (inactive)
- GI50 (HOP-62): > 100 µM (inactive)
- GI50 (T47D): > 100 µM (inactive)
- GI50 (MDA-MB-435): > 100 µM (inactive)
- GI50 (SR): > 100 µM (inactive)
- GI50 (K562): > 100 µM (inactive)
- GI50 (SK-OV-3): > 100 µM (inactive)
- GI50 (SK-MEL-2): > 100 µM (inactive)
- GI50 (HCT-15): > 100 µM
- GI50 (SF-295): > 100 µM (inactive)
- GI50 (IGROV-1): > 100 µM (inactive)
- GI50 (SNB-75): > 100 µM (inactive)
- GI50 (OVCAR-5): > 100 µM (inactive)
- GI50 (HOP-92): > 100 µM (inactive)
- GI50 (LOX IMVI): > 100 µM (inactive)
- GI50 (Malme-3M): > 100 µM (inactive)
- GI50 (EKVX): > 100 µM (inactive)
- GI50 (HCC 2998): > 100 µM (inactive)
- GI50 (TK-10): > 100 µM (inactive)
- GI50 (OVCAR-3): > 100 µM (inactive)
- GI50 (SK-MEL-28): > 100 µM (inactive)
- GI50 (A549): > 100 µM (inactive)
- GI50 (UACC-257): > 100 µM (inactive)
- GI50 (MDA-MB-231): > 100 µM (inactive)
- GI50 (NCI-H460): > 100 µM (inactive)
- GI50 (RXF 393): > 100 µM (inactive)
- GI50 (KM12): > 100 µM (inactive)
- GI50 (SK-MEL-5): > 100 µM (inactive)
- GI50 (HCT-116): > 100 µM (inactive)
- GI50 (HT-29): > 100 µM (inactive)
- GI50 (NCI-H226): > 100 µM (inactive)
- GI50 (SF-539): > 100 µM (inactive)
- GI50 (NCI/ADR-RES): > 100 µM (inactive)
- GI50 (ACHN): > 100 µM (inactive)
- GI50 (SW-620): > 100 µM (inactive)
- GI50 (MDA-N): > 100 µM (inactive)
- GI50 (HL-60): > 100 µM (inactive)
- GI50 (DU-145): > 100 µM (inactive)
- GI50 (COLO 205): > 100 µM (inactive)
- GI50 (U-251): > 100 µM (inactive)
- GI50 (BT-549): > 100 µM (inactive)
- GI50 (RPMI-8226): > 100 µM (inactive)
- GI50 (SNB-19): > 100 µM (inactive)

Source: ChEMBL document CHEMBL1201862, “PubChem BioAssay data set” (2004)
